By EC50 is commonly meant the concentration that produces a half-maximal response.

The text below walks through data of article PMC6001824, “Expressional and functional interactions of two Apis cerana cerana olfactory receptors” (PeerJ, 2018).

Where two headings read alike, the source gives them in different places.

The target of experiment [1] is T1, AcerOr2 (Apis cerana cerana, UniProt G9J1I3). It is filed as cell-based. Conditions: for EC50: Sf9 cells expressing AcerOr2, Ca2+ imaging. The method, then:
(§1) Spodoptera frugiperda Sf9 cells were purchased from the Chinese Academy of Sciences Cell Bank (Beyotime, Shanghai, China) were maintained as an adherent culture in Sf-900 III serum-free medium (SFM; Gibco, Invitrogen, Carlsbad, CA, USA) supplemented with 10% fetal bovine serum (Sijiqing, Hangzhou, China) and 100 μg mL^−1 penicillin-streptomycin at a constant temperature of 28 °C in a humidified incubator (Thermo Scientific, Cornelius, OR, USA) in the absence of CO2 in T-25 tissue culture flasks (Corning Inc., Corning, NY, USA). Sf9 cells were grown to approximately 80–90% confluence as observed under a light microscope. Cells were dislodged from the flask by washing with the media contained in the flask. In total, 1 × 10^6 Sf9 cells were suspended in 2 mL of Sf-900 III SFM in each well of a Nunclone six-well tissue culture plate (Corning Inc., Corning, NY, USA). Confluent cells (80–90%) were transiently transfected with 2.0 μg pIB-AcerOr1/pIB-AcerOr2 using 8 μL of Cellfectin II reagent (Invitrogen, Carlsbad, CA, USA) in six-well plates according to the manufacturer’s instructions. The medium containing plasmid DNA and Cellfectin II was removed after incubation of the cells with a DNA/Cellfectin II mix for 3–5 h. The cells were washed twice with fresh Sf-900 III SFM and overlaid with 2 mL of fresh SFM. […] After incubation for 48 h, assays were performed.
(§2) To identify candidate ligands for selected ORs, we tested 32 compounds (most of which were volatile compounds from host plants, including aldehydes, alcohols, monoterpenes, benzoates, and sesquiterpenes) at a final concentration of 10^−6 M by Ca^2+ imaging in an in vitro cell expression system. […] After the cells were transfected for 48 h, the medium was removed and the cells were washed three times with Hank’s balanced salt solution (without Ca^2+). The cells were subsequently cultured at 37 °C in the dark for 30 min in the presence of 2 μmol L^−1 Fluo-4-AM (Beyotime, Shanghai, China) and were stimulated by the chemical odorants. Each test chemical ligand was applied to Fluo-4-loaded Sf9 cells expressing AcerOr1 at a final concentration of 10^−6 M, and the increase in fluorescence caused by the substrate was measured and expressed as a fraction of the fluorescence elicited by the calcium ionophore ionomycin. The Ca^2+-free solution used was Dulbecco’s phosphate buffered saline supplemented with 0.4 mM ethylene glycol tetra-acetic acid (EGTA).
(§3) EC50 values were determined using GraphPad Prism 6.0 (GraphPad; San Diego, CA, USA). The formula used for calculating the concentration-response using a 4-parameter logistic model was as follows: Y=Bottom+(Top−Bottom)/1+10^(LogEC50−X)^*HillSlope where Y and X are the response showing a sigmoid shape and the logarithm of the concentration.

The target in another experiment is AcerOr1 (Apis cerana cerana, UniProt G8HAQ8). It is filed as cell-based. Conditions: for HillSlope: Sf9 cells expressing AcerOr1, 4-parameter logistic fit; for EC50: Sf9 cells expressing AcerOr1, Ca2+ imaging; for Emax: Sf9 cells expressing AcerOr1, concentration-response, 4-parameter logistic fit; for response of AcerOr1-expressing cells (increase in intracellular Ca2+): odorant at 10^−6 M. The method, then:
as §1, §2, §3

In experiment [2] the test system is antennae of Apis cerana cerana. Description: Electroantennography (EAG) of isolated antennae. To be noted: 500 μg μL^−1 of compound in liquid paraffin, relative to blank. The method, then:
The level of OR expression in antenna olfactory neurons can be indirectly measured by recording the EAG responses of the isolated antennae to the corresponding odorant ligand. We compared data previously obtained by Ca^2+ imaging in vitro to determine whether these odorants can cause electrophysiological responses in the antennae with physiological activity. […] The compounds were dissolved and diluted in liquid paraffin to final concentrations of 0.1, 1, 10, 100, and 500 μg μL^−1. Pure liquid paraffin wax was used as a blank, and results were calculated relative to the blank. The antennae were carefully cut at the base and placed into EAG electrode probes (Syntech, Hilversum, The Netherlands) with a drop of Spectra 360 electrode gel (Parker Lab, Inc., Fairfield, NJ, USA). Filter paper strips (5 × 50 mm) were loaded with 20 μL of the different test solutions and inserted into glass Pasteur pipettes and served as sources of stimuli. Humidified airflow was delivered at a constant rate of 700 mL min^−1 by an air stimulus controller CS-55 (Syntech, Kirchzarten, Germany). Odor stimuli were administered three times at 2 mL s^−1 for 0.5 s at 30 s intervals. EAG recordings of antennal responses to each stimulus were documented as voltage waveforms using an IDAC-4 computer-operated amplifier controller (Syntech, Kirchzarten, Germany), and the data were analyzed with the EAGPro software (Syntech, Kirchzarten,Germany). A newly prepared antenna was used for each recording. A dose-response curve was plotted using the EAG recordings (in mV) for each concentration.

Experiment [3] has as its system endogenous Orco in Sf9 cells. Description: Ca2+ imaging of control Sf9 cells transfected with pIB/V5 empty vector. It is filed as cell-based, Spodoptera frugiperda. To be noted: odorant at 10^−6 M.
The target in experiment [4] is T1, AcerOr2. It counts as cell-based. To be noted: odorant at 10^−6 M.

Sequence of AcerOr1 (G8HAQ8 entry or part of it): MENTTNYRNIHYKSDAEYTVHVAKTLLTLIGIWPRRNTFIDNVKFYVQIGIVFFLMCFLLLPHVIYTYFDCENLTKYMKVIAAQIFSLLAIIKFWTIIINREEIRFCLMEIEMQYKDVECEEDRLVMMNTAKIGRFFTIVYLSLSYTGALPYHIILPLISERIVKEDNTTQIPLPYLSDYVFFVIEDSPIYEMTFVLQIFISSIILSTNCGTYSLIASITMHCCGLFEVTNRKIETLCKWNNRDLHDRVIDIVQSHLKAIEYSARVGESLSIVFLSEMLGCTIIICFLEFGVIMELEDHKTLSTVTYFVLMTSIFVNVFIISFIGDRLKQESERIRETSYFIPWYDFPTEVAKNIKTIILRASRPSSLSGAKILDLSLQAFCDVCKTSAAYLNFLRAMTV
T1 sequence (G9J1I3 entry or part of it): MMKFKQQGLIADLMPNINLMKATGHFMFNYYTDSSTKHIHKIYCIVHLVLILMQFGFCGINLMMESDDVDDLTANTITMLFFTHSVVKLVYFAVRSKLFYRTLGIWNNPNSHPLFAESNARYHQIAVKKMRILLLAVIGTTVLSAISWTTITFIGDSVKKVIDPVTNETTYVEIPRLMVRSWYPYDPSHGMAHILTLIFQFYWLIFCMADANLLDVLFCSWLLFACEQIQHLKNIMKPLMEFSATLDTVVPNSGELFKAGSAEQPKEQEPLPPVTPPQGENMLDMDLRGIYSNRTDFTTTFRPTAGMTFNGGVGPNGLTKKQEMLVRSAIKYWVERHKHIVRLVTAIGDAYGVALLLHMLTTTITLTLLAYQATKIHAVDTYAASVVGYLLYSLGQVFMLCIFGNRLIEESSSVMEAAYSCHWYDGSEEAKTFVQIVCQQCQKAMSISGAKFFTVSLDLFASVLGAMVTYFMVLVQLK

In the case of `CCCCCCCCCO` [1-Nonanol], the EC50 on AcerOr2 [1] (read-out: EC50) was above 10 µM. For the same compound, at AcerOr1, the HillSlope is reported as 0.80 ± 0.06, the EC50 is reported as 10^−7 to 10^−8 M, the Emax was 69.86 ± 0.44 and the “response of AcerOr1-expressing cells (increase in intracellular Ca2+)” value is reported as “elicited responses”.
For `CCCCCCCCO` [1-Octyl alcohol], the EC50 at AcerOr2 [1] (read-out: EC50) is above 10 µM. Besides, at AcerOr1, the HillSlope was 0.63 ± 0.04, the EC50 is on record as 10^−7 to 10^−8 M, the Emax is 106.77 ± 2.01 and the “response of AcerOr1-expressing cells (increase in intracellular Ca2+)” value was “elicited responses”.
In the case of `C=CCc1ccc(O)c(OC)c1` [Eugenol], the EC50 on AcerOr2 [1] is above 10 µM. On AcerOr1, the HillSlope is recorded as 0.74 ± 0.06, the EC50 was 10^−7 to 10^−8 M, the Emax is on record as 88.53 ± 0.52 and the “response of AcerOr1-expressing cells (increase in intracellular Ca2+)” value is “elicited responses”. The EAG response in experiment [2] is listed as 9.92 ± 0.58 mV.
Turning to `CCCCCCOC(C)=O` [Hexyl acetate], the EC50 on AcerOr2 [1] (read-out: EC50) was above 10 µM. For the same compound, on AcerOr1, the HillSlope was 0.73 ± 0.05, the EC50 is 10^−7 to 10^−8 M, the Emax is 115.94 ± 1.5 and the “response of AcerOr1-expressing cells (increase in intracellular Ca2+)” value is recorded as “elicited responses”.
For `CCCCCCCCCCCC(=O)O` [Lauric acid], the EC50 on AcerOr2 [1] (read-out: EC50) was above 10 µM. Moreover, on AcerOr1, the HillSlope came out at 0.49 ± 0.06, the EC50 was 10^−7 to 10^−8 M, the Emax amounted to 138.79 ± 0.5 and the “response of AcerOr1-expressing cells (increase in intracellular Ca2+)” value is listed as “elicited responses”. Also, at AcerOr1 (read-out: EC50), the EC50 was found to be 48.1 nM.
On AcerOr2 [1], `CC/C=C\C/C=C\C/C=C\CCCCCCCC(=O)O` [Linolenic acid] returned an EC50 above 10 µM. Also, at AcerOr1, the HillSlope stood at 0.87 ± 0.03, the EC50 is recorded as 10^−7 to 10^−8 M, the Emax is reported as 85.74 ± 0.83 and the “response of AcerOr1-expressing cells (increase in intracellular Ca2+)” value is recorded as “elicited responses”. The compound also came in with an EAG response in experiment [2] of 10 ± 0.54 mV.
In the case of `CC(C)=CCC/C(C)=C\CO` [Nerol], the EC50 on AcerOr2 [1] was above 10 µM. On AcerOr1, the HillSlope turned out to be 0.52 ± 0.06, the EC50 is on record as 10^−7 to 10^−8 M, the Emax stood at 184.92 ± 0.55 and the “response of AcerOr1-expressing cells (increase in intracellular Ca2+)” value is recorded as “elicited responses”.
As for `C=CC(C)=CCC=C(C)C` [Ocimene], the EC50 on AcerOr2 [1] (read-out: EC50) was above 10 µM. In addition, at AcerOr1, the HillSlope is 0.50 ± 0.09, the EC50 is recorded as 10^−7 to 10^−8 M, the Emax is recorded as 144.27 ± 0.59 and the “response of AcerOr1-expressing cells (increase in intracellular Ca2+)” value was “elicited responses”. The EC50 at AcerOr1 (read-out: EC50) was 53.2 nM.
With `CCCCCCCCCCC(=O)O` [Undecanoic acid], the EC50 at AcerOr2 [1] (read-out: EC50) was above 10 µM. Also, on AcerOr1, the HillSlope was found to be 0.73 ± 0.05, the EC50 is listed as 10^−7 to 10^−8 M, the Emax is 116.69 ± 1.15 and the “response of AcerOr1-expressing cells (increase in intracellular Ca2+)” value was “elicited responses”.
Take `CCc1ccc(NC(=O)CSc2nnc(-c3cccnc3)n2CC)cc1` [VUAA1, N-(4-ethylphenyl)-2-((4-ethyl-5-(3-pyridinyl)-4H-1,2,4-triazol-3-yl)thio) acetamide]: the HillSlope at AcerOr2 [1] (Sf9 cells expressing AcerOr2, 4-parameter logistic fit) is listed as 0.56 ± 0.08; at AcerOr1, 1.72 ± 1.48. For the same compound, at AcerOr2 [1] (read-out: EC50), the EC50 came to 0.0662 µM. The Emax was 241.67 ± 0.74 at AcerOr2 [1] (Sf9 cells expressing AcerOr2, concentration-response, 4-parameter logistic fit) and 4.64 ± 0.10 at AcerOr1. The “response of AcerOr1-expressing cells (increase in intracellular Ca2+)” value at AcerOr1 was “sensitive”. Further, the “response of control cells (pIB/V5 empty vector, endogenous Orco only)” value in experiment [3] is reported as “unable to respond”. Moreover, on AcerOr2 [4], the “response of cells expressing AcerOr2 alone (increase in intracellular Ca2+)” value is given as “greatest increase in intracellular Ca^2+”. In experiment [2], this compound showed an EAG response of 18.71 ± 1.45 mV.
